{"source": "patent US12054486B2", "about": "“Pyridine derivatives and their use as sodium channel activators” (Xenon Pharmaceuticals Inc., priority 2021, dated 2024)", "data": [{"biological_target": "sodium channel isoforms of interest stably expressed in Human Embryonic Kidney Cells (voltage-gated sodium channel, particularly NaV1.1) (Homo sapiens, UniProt P35498)", "test": "automated planar patch clamp assay of sodium channel gating (area under the sodium current trace)", "assay_type": "cell-based", "details": "HEK cells, voltage step from −120 mV to 0 mV, increasing concentrations", "from_the_text": "A typical assay described in Crestey, F. et al., ACS Chem Neurosci (2015), Vol. 6, pp. 1302-1308, AA43279 (Frederiksen, K. et al., Eur J Neurosci (2017), Vol. 46, pp. 1887-1896) and Lu AE98134 (von Schoubyea, N. L. et al., Neurosci Lett (2018), Vol. 662, pp. 29-35) employs the use of automated planar patch clamp techniques to study the effects of the chemical agent on the gating of sodium channels. The sodium channel isoforms of interest are stably expressed in Human Embryonic Kidney Cells and the currents that flow through those channels in response to a depolarizing voltage clamp step from −120 mV to 0 mV are measured in the presence of increasing concentrations of the chemical agents. The area under the sodium current trace which correlates to the magnitude of sodium flux through the cell membrane is used to quantify the effects on gating of the channels. Other parameters that are measured in the assay include the peak current, time constant of open state inactivation and the voltage dependence of steady state inactivation properties. The concentration responses are used to determine potency of each chemical agents effects on modulating the sodium channel isoform gating. Such techniques are known to those skilled in the art, and may be developed, using current technologies, into low or medium throughput assays for evaluating compounds for their ability to modulate sodium channel behaviour.\nAs disclosed above, typical assays for testing compounds of the disclosure are known, for example as disclosed in Crestey, F. et al., ACS Chem Neurosci (2015), Vol. 6, pp. 1302-1308, AA43279 (Frederiksen, K. et al., Eur J Neurosci (2017), Vol. 46, pp. 1887-1896) and Lu AE98134 (von Schoubyea, N. L. et al., Neurosci Lett (2018), Vol. 662, pp. 29-35) which employs the use of automated planar patch clamp techniques to study the effects of the chemical agent on the gating of sodium channels. The sodium channel isoforms of interest are stably expressed in Human Embryonic Kidney Cells and the currents that flow through those channels in response to a depolarizing voltage clamp step from −120 mV to 0 mV are measured in the presence of increasing concentrations of the chemical agents. The area under the sodium current trace which correlates to the magnitude of sodium flux through the cell membrane is used to quantify the effects on gating of the channels. Other parameters that are measured in the assay include the peak current, time constant of open state inactivation and the voltage dependence of steady state inactivation properties. The concentration responses are used to determine potency of each chemical agents effects on modulating the sodium channel isoform gating.", "units": {"EC50": "µM"}, "values": [{"smiles": "CC(C)c1ccc(-c2cc(-c3c(-c4ccccc4)ccnc3N3CC[C@H](F)C3)n[nH]2)cc1", "note": "[Example 20, (S)-2-(3-fluoropyrrolidin-1-yl)-3-(5-(4-isopropylphenyl)-1H-pyrazol-3-yl)-4-phenylpyridine]", "EC50": "10 to 50", "Empirical Emax": "++ (++ indicates a value from 2.0 up to 5.0 μM)"}, {"smiles": "FC1(F)CN(c2nccc(-c3ccccc3)c2-c2nc3c([nH]2)COCC3)C1", "note": "[Example 65, 2-(2-(3,3-difluoroazetidin-1-yl)-4-phenylpyridin-3-yl)-3,4,6,7-tetrahydropyrano[3,4-d]imidazole]", "EC50": "≥ 50", "Empirical Emax": "++ (++ indicates a value from 2.0 up to 5.0 μM)"}, {"smiles": "CC1(C)Cc2nc(-c3c(-c4ccccc4)ccnc3N3CCC(F)(F)C3)[nH]c2CO1", "note": "[Example 52, 2-(2-(3,3-difluoropyrrolidin-1-yl)-4-phenylpyridin-3-yl)-6,6-dimethyl-3,4,6,7-tetrahydropyrano[3,4-d]imidazole]", "EC50": "< 1", "Empirical Emax": "+++ (+++ indicates a value from 5.0 up to 7.5 μM)"}, {"smiles": "F[C@H]1CCN(c2nccc(C3=CCCC3)c2-c2nc3ccccc3[nH]2)C1", "note": "[Example 14, (S)-2-(4-(cyclopent-1-en-1-yl)-2-(3-fluoropyrrolidin-1-yl)pyridin-3-yl)-1H-benzo[d]imidazole]", "EC50": "1 to 10", "Empirical Emax": "++ (++ indicates a value from 2.0 up to 5.0 μM)"}, {"smiles": "FC1(F)CCN(c2nccc(-c3ccccc3)c2-c2nc3c([nH]2)CCCC3)C1", "note": "[Example 60, 2-(2-(3,3-difluoropyrrolidin-1-yl)-4-phenylpyridin-3-yl)-4,5,6,7-tetrahydro-1H-benzo[d]imidazole]", "EC50": "< 1", "Empirical Emax": "++ (++ indicates a value from 2.0 up to 5.0 μM)"}, {"smiles": "c1ccc(-c2cnnc(N3CCCC3)c2-c2nc3ccccc3[nH]2)cc1", "note": "[Example 28, 2-(5-phenyl-3-(pyrrolidin-1-yl)pyridazin-4-yl)-1H-benzo[d]imidazole]", "EC50": "10 to 50", "Empirical Emax": "++ (++ indicates a value from 2.0 up to 5.0 μM)"}, {"smiles": "Cc1[nH]c(-c2c(-c3ccccc3)ccnc2N2CCC(F)(F)C2)nc1-c1ccccc1", "note": "[Example 61, 2-(3,3-difluoropyrrolidin-1-yl)-3-(5-methyl-4-phenyl-1H-imidazol-2-yl)-4-phenylpyridine]", "EC50": "1 to 10", "Empirical Emax": "++ (++ indicates a value from 2.0 up to 5.0 μM)"}, {"smiles": "Fc1ccccc1-c1ccnc(N2CC[C@H](F)C2)c1-c1nnco1", "note": "[Example 9, (S)-2-(4-(2-fluorophenyl)-2-(3-fluoropyrrolidin-1-yl)pyridin-3-yl)-1,3,4-oxadiazole]", "EC50": "≥ 50", "Empirical Emax": "++ (++ indicates a value from 2.0 up to 5.0 μM)"}, {"smiles": "FC1(F)CCN(c2nccc(-c3ccccn3)c2-c2nc3c([nH]2)CCOC3)C1", "note": "[Example 76, 2-[2-(3,3-difluoropyrrolidin-1-yl)-4-(2-pyridyl)-3-pyridyl]-1,4,6,7-tetrahydropyrano[3,4-d]imidazole]", "EC50": "10 to 50", "Empirical Emax": "+++ (+++ indicates a value from 5.0 up to 7.5 μM)"}, {"smiles": "Cc1nc(-c2c(-c3ccccc3)ccnc2N2CC[C@H](F)C2)[nH]c1C(F)(F)F", "note": "[Example 33, (S)-2-(3-fluoropyrrolidin-1-yl)-3-(4-methyl-5-(trifluoromethyl)-1H-imidazol-2-yl)-4-phenylpyridine]", "EC50": "10 to 50", "Empirical Emax": "++ (++ indicates a value from 2.0 up to 5.0 μM)"}, {"smiles": "CC(C)(C)c1nc(-c2c(-c3ccccc3)ccnc2N2CCC(F)(F)C2)no1", "note": "[Example 62, 5-(tert-butyl)-3-(2-(3,3-difluoropyrrolidin-1-yl)-4-phenylpyridin-3-yl)-1,2,4-oxadiazole]", "EC50": "1 to 10", "Empirical Emax": "+ (+ indicates a value less than 2.0 μM)"}, {"smiles": "Clc1ccccc1-c1ccnc(N2CCCC2)c1-c1nc2ccccc2[nH]1", "note": "[Example 6, 2-(4-(2-chlorophenyl)-2-(pyrrolidin-1-yl)pyridin-3-yl)-1H-benzo[d]imidazole]", "EC50": "1 to 10", "Empirical Emax": "++ (++ indicates a value from 2.0 up to 5.0 μM)"}, {"smiles": "c1ccc(-c2ccnc(N3CCOCC3)c2-c2nc3c([nH]2)COCC3)cc1", "note": "[Example 64, 2-(2-morpholino-4-phenylpyridin-3-yl)-3,4,6,7-tetrahydropyrano[3,4-d]imidazole]", "EC50": "10 to 50", "Empirical Emax": "+ (+ indicates a value less than 2.0 μM)"}, {"smiles": "CC(C)(C)OC(=O)N1CCc2nc(-c3c(-c4ccccc4)ccnc3N3CC[C@H](F)C3)[nH]c2C1", "note": "[Example 34, Tert-Butyl (S)-2-(2-(3-fluoropyrrolidin-1-yl)-4-phenylpyridin-3-yl)-3,4,6,7-tetrahydro-5H-imidazo[4,5-c]pyridine-5-carboxylate]", "EC50": "1 to 10", "Empirical Emax": "+++ (+++ indicates a value from 5.0 up to 7.5 μM)"}, {"smiles": "CC(=O)N1CCc2nc(-c3c(-c4ccccc4)ccnc3N3CC[C@H](F)C3)[nH]c2C1", "note": "[Example 37, (S)-1-(2-(2-(3-fluoropyrrolidin-1-yl)-4-phenylpyridin-3-yl)-3,4,6,7-tetrahydro-5H-imidazo[4,5-c]pyridin-5-yl)ethan-1-one]", "EC50": "10 to 50"}, {"smiles": "FC1(F)CCN(c2nccc(-c3ccc4[nH]ncc4c3)c2-c2nc3c([nH]2)CCOC3)C1", "note": "[Example 74, 2-[2-(3,3-difluoropyrrolidin-1-yl)-4-(1H-indazol-5-yl)-3-pyridyl]-1,4,6,7-tetrahydropyrano[3,4-d]imidazole]", "EC50": "1 to 10", "Empirical Emax": "++++ (++++ indicates a value greater than 7.5)"}, {"smiles": "Cc1ccccc1-c1ccnc(N2CCCC2)c1-c1nc2ccccc2[nH]1", "note": "[Example 7, 2-(2-(pyrrolidin-1-yl)-4-(o-tolyl)pyridin-3-yl)-1H-benzo[d]imidazole]", "EC50": "1 to 10", "Empirical Emax": "++ (++ indicates a value from 2.0 up to 5.0 μM)"}, {"smiles": "c1ccc(-c2ccnc(OC3CCC3)c2-c2nc3c([nH]2)COCC3)cc1", "note": "[Example 67, 2-(2-cyclobutoxy-4-phenylpyridin-3-yl)-3,4,6,7-tetrahydropyrano[3,4-d]imidazole]", "EC50": "≥ 50", "Empirical Emax": "+ (+ indicates a value less than 2.0 μM)"}, {"smiles": "CC1(C)OCCc2nc(-c3c(-c4ccccc4)ccnc3N3CCC(F)(F)C3)[nH]c21", "note": "[Example 54, 2-(2-(3,3-difluoropyrrolidin-1-yl)-4-phenylpyridin-3-yl)-4,4-dimethyl-3,4,6,7-tetrahydropyrano[3,4-d]imidazole]", "EC50": "1 to 10", "Empirical Emax": "+++ (+++ indicates a value from 5.0 up to 7.5 μM)"}, {"smiles": "Fc1ccccc1-c1ccnc(N2CCCC2)c1-c1nc2ccccc2[nH]1", "note": "[Example 3, 2-(4-(2-fluorophenyl)-2-(pyrrolidin-1-yl)pyridin-3-yl)-1H-benzo[d]imidazole]", "EC50": "1 to 10", "Empirical Emax": "++++ (++++ indicates a value greater than 7.5)"}, {"smiles": "FC(F)(F)C1(CNc2nccc(-c3ccccc3)c2-c2nc3c([nH]2)COCC3)CCC1", "note": "[Example 51, 4-phenyl-3-(3,4,6,7-tetrahydropyrano[3,4-d]imidazol-2-yl)-N-((1-(trifluoromethyl)cyclobutyl)methyl)pyridin-2-amine]", "EC50": "< 1", "Empirical Emax": "+ (+ indicates a value less than 2.0 μM)"}, {"smiles": "F[C@H]1CCN(c2nccc(-c3ccccc3)c2-c2nc3c([nH]2)CN(C2COC2)CC3)C1", "note": "[Example 39, (S)-2-(2-(3-fluoropyrrolidin-1-yl)-4-phenylpyridin-3-yl)-5-(oxetan-3-yl)-4,5,6,7-tetrahydro-3H-imidazo[4,5-c]pyridine]", "EC50": "10 to 50", "Empirical Emax": "++ (++ indicates a value from 2.0 up to 5.0 μM)"}]}]}
